# According to patent EP1832576A1, “4-Biarylyl-1-phenolyzetidin-2-ones” (Microbia Inc., priority 2003, dated 2005):
# System: cholesterol absorption from the intestine
# Experiment: In Vivo Assay of Hypolipidemic Agents using the Rat Cholesterol Absorption Model
# Design: species or system Female Sprague-Dawley rats
# Details: po, 3H levels in serum three hours after 3H-cholesterol; for inhibition at 1 mg/kg: versus vehicle only control; for inhibition at 10 mg/kg: Table 1, footnote 1, perorally
# Procedure: In Vivo Assay of Hypolipidemic Agents using the Rat Cholesterol Absorption Model. This model is based on models described by Burnett et al (2002), Bioorg. Med. Chem. Lett. 2002 Feb 11;12(3):315-8 and J. Lipid Res. 1999 Oct;40(10):1747-57. Female Sprague-Dawley rats weighing 150-250g are separated into […] and fasted overnight. The animals (4-6/group) are dosed perorally with 300µL test compounds in olive oil or suitable vehicle. Thirty minutes later, 3-5 microCuries ^3H-cholesterol per rat are delivered perorally in 300 µL olive oil. After three hours, 200 µL serum is collected, vortexed with scintillation fluid, and measured for radioactivity in a scintillation counter. Percent inhibition is defined as 100*(1-Ctest/Cctrl), where Ctest and Cctrl refer to ^3H levels in serum for the test compound and for the vehicle only control, respectively. Percent inhibition values are reported for a fixed dose. The ED50 is the dose at which the half-maximal effect on serum ^3H levels is observed for a given test compound.
# Representative compounds of the invention were tested in the Rat Cholesterol Absorption model above.
Compound,"inhibition at 1 mg/kg (Table 1, perorally) [%]",also measured
"Nc1cccc(-c2ccc([C@@H]3[C@@H](CC[C@H](O)c4ccc(F)cc4)C(=O)N3c3ccc(F)cc3)cc2)c1 [Example 86, (3R,4S)-4-(3'-aminabiphenyl-4-yl)-1-(4-fluorophenyl)-3-[(3S)-3-(4-fluorophenyl)-3-hydroxypropyl]azetidin-2-one]",35,
"CC(=O)Nc1cccc(-c2ccc([C@@H]3[C@@H](CC[C@H](O)c4ccc(F)cc4)C(=O)N3c3ccc(F)cc3)cc2)c1 [Example 26, N-(4'-{(2S,3R)-1-(4-fluorophenyl)-3-[(3S)-3-(4-fluorophenyl)-3-hydroxypropyl]-4-oxoazetidin-2-yl}biphenyl-3-yl)acetamide]",,inhibition at 10 mg/kg: 76%
"O=C1[C@H](CC[C@H](O)c2ccc(F)cc2)[C@@H](c2ccc(-c3cccc(O)c3)cc2O)N1c1ccccc1 [Example 42, (3R,4S)-4-(3,3'-Dihydroxybiphenyl-4-yl)-3-[(3S)-3-(4-fluorophenyl)-3-hydroxypropyl]-1-phenylazetidin-2-one]",,"inhibition at 1 mg/kg (Table 2, perorally): 87%"
"O=C1[C@H](CC[C@H](O)c2ccc(F)cc2)[C@@H](c2ccc(-c3ccccc3)cc2)N1c1ccc(F)cc1 [Example 3, (3R,4S)-4-Biphenyl-4-yl-1-(4-fluorophenyl)-3-[(3S)-3-(4-fluorophenyl)-3-hydroxypropyl]azetidin-2-one]",,inhibition at 10 mg/kg: 15%
"O=C1[C@H](CC[C@H](O)c2ccc(F)cc2)[C@@H](c2ccc(-c3cccc([C@@H](O)[C@H]4OC(O)[C@H](O)[C@@H](O)[C@@H]4O)c3)cc2O)N1c1ccccc1 (stereo partly drawn) [Example 74, (6R)-6-C-(4'-{(2S,3R)-3-[(3S)-3-(4-Fluorophenyl)-3-hydroxypropyl]-4-oxo-1-phenylazetidin-2-yl}-3'-hydroxybiphenyl-3-yl)-D-glucopyranose]",,"inhibition at 1 mg/kg (Table 2, perorally): 67%"
"COc1ccc(-c2ccc([C@@H]3[C@@H](CC[C@H](O)c4ccc(F)cc4)C(=O)N3c3ccc(F)cc3)cc2)c(OC)c1OC [Example 96, (3R,4S)-1-(4-fluorophenyl)-3-[(3S)-3-(4-fluorophenyl)-3-hydroxypropyl]-4-(2',3',4'-trimethoxybiphenyl-4-yl)azetidin-2-one]",69,
"O=C1[C@H](CC[C@H](O)c2ccc(F)cc2)[C@@H](c2ccc(-c3cccc([C@@H]4O[C@@H](CO)[C@H](O)[C@@H](O)[C@@H]4O)c3)cc2)N1c1ccc(F)cc1 [Example 113, (1S)-1,5-anhydro-1-(4'-{(2S,3R)-1-(4-fluorophenyl)-3-[(3S)-3-(4-fluorophenyl)-3-hydroxypropyl]-4-oxoazetidin-2-yl}biphenyl-3-yl)-L-glucitol]",67,
"COc1ccc(-c2ccc([C@@H]3[C@@H](CC[C@H](O)c4ccc(F)cc4)C(=O)N3c3ccc(F)cc3)cc2)cc1 [Example 5, (3R,4S)-1-(4-fluorophenyl)-3-[(3S)-3-(4-fluorophenyl)-3-hydroxypropyl]-4-(4'-methoxybiphenyl-4-yl)azetidin-2-one]",,inhibition at 10 mg/kg: 26%
"CN(C)c1ccc(-c2ccc([C@@H]3[C@@H](CC[C@H](O)c4ccc(F)cc4)C(=O)N3c3ccc(F)cc3)cc2)cc1 [Example 17, (3R,4S)-4-[4'(dimethylamino)biphenyl-4-yl]-1-(4-fluorophenyl)-3-[(3S)-3-(4-fluorophenyl)-3-hydroxypropyl]azetidin-2-one]",43,
"O=C(O)Cc1ccc(-c2ccc([C@@H]3[C@@H](CC[C@H](O)c4ccc(F)cc4)C(=O)N3c3ccc(F)cc3)cc2)cc1 [Example 88, (4'-{(2S,3R)-1-(4-fluorophenyl)-3-[(3S)-3-(4-fluorophenyl)-3-hydroxypropyl]-4-oxoazetidin-2-yl}biphenyl-4-yl)acetic acid]",30,
"O=C1[C@H](CC[C@H](O)c2ccc(F)cc2)[C@@H](c2ccc(-c3cccc(C[C@@H]4O[C@H](CO)[C@@H](O)[C@H](O)[C@H]4O)c3)cc2)N1c1ccc(F)cc1 [Example 117, 2,6-anhydro-1-deoxy-1-(4'-{(2S,3R)-1-(4-fluorophenyl)-3-[(3S)-3-(4-fluorophenyl)-3-hydroxypropyl]-4-oxoazetidin-2-yl}biphenyl-3-yl)-D-glycero-D-gulo-heptitol]",26,
"CS(=O)(=O)c1cccc(-c2ccc([C@@H]3[C@@H](CC[C@H](O)c4ccc(F)cc4)C(=O)N3c3ccc(F)cc3)cc2)c1 [Example 10, (3R,4S)-1-(4-fluorophenyl)-3-[(3S)-3-(4-fluorophenyl)-3-hydroxypropyl]-4-[3'-(methylsulfonyl)biphenyl-4-yl]azetidin-2-one]",,"inhibition at 3 mg/kg (Table 1, footnote 2, perorally, 3 mg/kg): 54%"
"O=C1[C@H](CC[C@H](O)c2ccc(F)cc2)[C@@H](c2ccc(-c3cccc(OC[C@@H](O)[C@@H](O)[C@H](O)[C@@H](O)CO)c3)cc2)N1c1ccc(F)cc1 [Example 78, 6-O-(4'-{(2S,3R)-1-(4-Fluorophenyl)-3-[(3S)-3-(4-fluorophenyl)-3-hydroxypropyl]-4-oxoazetidin-2-yl}biphenyl-3-yl)-D-glucitol]",51,
"O=C1[C@H](CC[C@H](O)c2ccc(F)cc2)[C@@H](c2ccc(-c3cccc(O)c3)cc2)N1c1ccccc1 [Example 57, (3R,4S)-3-[(3S)-3-(4-Fluorophenyl)-3-hydroxypropyl]-4-(3'-hydroxybiphenyl-4-yl)-1-phenylazetidin-2-one]",,"inhibition at 1 mg/kg (Table 2, perorally): 73%"
"N#Cc1cccc(-c2ccc([C@@H]3[C@@H](CC[C@H](O)c4ccc(F)cc4)C(=O)N3c3ccc(F)cc3)cc2)c1 [Example 14, 4'-{(2S,3R)-1-(4-fluorophenyl)-3-[(3S)-3-(4-fluorophenyl)-3-hydroxypropyl]-4-oxoazetidin-2-yl}biphenyl-3-carbonitrile]",,"inhibition at 5 mg/kg (Table 1, footnote 3, perorally, 5 mg/kg): 32%"
"O=C1[C@H](CC[C@H](O)c2ccc(F)cc2)[C@@H](c2ccc(-c3cccc(CO)c3)cc2)N1c1ccc(F)cc1 [Example 16, (3R,4S)-1-(4-Fluorophenyl)-3-[(3S)-3-(4-fluorophenyl)-3-hydroxypropyl]-4-(3'-(hydroxymethyl)biphenyl-4-yl)azetidin-2-one]",72,
"C[N+](C)(C)c1cccc(-c2ccc([C@@H]3[C@@H](CC[C@H](O)c4ccc(F)cc4)C(=O)N3c3ccc(F)cc3)cc2)c1 [Example 120, 4'-{(2S,3R)-1-(4-fluorophenyl)-3-[(3S)-3-(4-fluorophenyl)-3-hydroxypropyl]-4-oxoazetidin-2-yl}-N,N,N-trimethylbiphenyl-3-aminium]",23,
"COc1cccc(-c2ccc([C@@H]3[C@@H](CC[C@H](O)c4ccc(F)cc4)C(=O)N3c3ccc(F)cc3)cc2)c1 [Example 12, (3R,4S)-1-(4-fluorophenyl)-3-[(3S)-3-(4-fluorophenyl)-3-hydroxypropyl]-4-(3'-methoxybiphenyl-4-yl)azetidin-2-one]",70,
"COc1cc(-c2ccc([C@@H]3[C@@H](CC[C@H](O)c4ccc(F)cc4)C(=O)N3c3ccc(F)cc3)cc2)cc(OC)c1OC [Example 9, (3R,4S)-1-(4-fluorophenyl)-3-[(3S)-3-(4-fluorophenyl)-3-hydroxypropyl]-4-(3',4',5'-trimethoxybiphenyl-4-yl)azetidin-2-one]",40,
"O=C1[C@H](CC[C@H](O)c2ccc(F)cc2)[C@@H](c2ccc(-c3cccc([C@H](O)[C@@H](O)[C@@H](O)[C@H](O)[C@@H](O)CO)c3)cc2O)N1c1ccccc1 [Example 75, (6S)-6-C-(4'-{(2S,3R)-3-[(3S)-3-(4-Fluorophenyl)-3-hydroxypropyl]-4-oxo-1-phenylazetidin-2-yl}-3'-hydroxybiphenyl-3-yl)-D-glucitol]",,"inhibition at 1 mg/kg (Table 2, perorally): 68%"
"O=C1[C@H](CC[C@H](O)c2ccc(F)cc2)[C@@H](c2ccc(-c3ccc(O)cc3)cc2)N1c1ccc(F)cc1 [Example 2, (3R,4S)-1-(4-fluorophenyl)-3-[(3S)-3-(4-fluorophenyl)-3-hydroxypropyl]-4-(4'-hydroxybiphenyl-4-yl)azetidin-2-one]",54,
"COc1ccc(-c2ccc([C@@H]3[C@@H](CC[C@H](O)c4ccc(F)cc4)C(=O)N3c3ccc(F)cc3)cc2)cc1OC [Example 81, (3R,4S)-4-(3',4'-dimethoxybiphenyl-4-yl)-1-(4-fluorophenyl)-3-[(3 S)-3-(4-fluorophenyl)-3-hydroxypropyl]azetidin-2-one]",17,
"COc1ccc(-c2ccc([C@@H]3[C@@H](CC[C@H](O)c4ccc(F)cc4)C(=O)N3c3ccc(F)cc3)cc2)c(OC)c1 [Example 97, (3R,4S)-4-(2',4'-dimethoxybiphenyl-4-yl)-1-(4-fluorophenyl)-3-[(3S)-3-(4-fluorophenyl)-3-hydroxypropyl]azetidin-2-one]",40,
"COC(=O)c1ccc(-c2ccc([C@@H]3[C@@H](CC[C@H](O)c4ccc(F)cc4)C(=O)N3c3ccc(F)cc3)cc2)cc1 [Example 89, methyl 4'-{(2S,3R)-1-(4-fluorophenyl)-3-[(3S)-3-(4-fluorophenyl)-3-hydroxypropyl]-4-oxoazetidin-2-yl} biphenyl-4-carboxylate]",45,
"O=Cc1ccc(O)cc1-c1ccc([C@@H]2[C@@H](CC[C@H](O)c3ccc(F)cc3)C(=O)N2c2ccc(F)cc2)cc1 [Example 104, 4'-{(2S,3R)-1-(4-fluorophenyl)-3-[(3S)-3-(4-fluorophenyl)-3-hydroxypropyl]-4-oxoazetidin-2-yl}-5-hydroxybiphenyl-2-carbaldehyde]",52,
